Experimental data published in patent publication US11697648B2, “Fused pyrimidine pyridinone compounds as JAK inhibitors” (THERAVANCE BIOPHARMA R&D IP, LLC, priority 2019, dated 2023).

target: JAK1 (Homo sapiens (Human), UniProt P23458); assay: Biochemical JAK1 kinase assay (LanthaScreen); settings: not given
Protocol: (§1) Assay 1: Biochemical JAK and Tyk2 Kinase Assays
(§2) A panel of four LanthaScreen JAK biochemical assays (JAK1, 2, 3 and Tyk2) were carried in a common kinase reaction buffer (50 mM HEPES, pH 7.5, 0.01% Brij-35, 10 mM MgCl2, and 1 mM EGTA). Recombinant GST-tagged JAK enzymes and a GFP-tagged STAT1 peptide substrate were obtained from Life Technologies.
(§3) Serially or discretely diluted compounds were pre-incubated with each of the four JAK enzymes and the substrate in white 384-well microplates (Corning) at ambient temperature for 1 h. ATP was subsequently added to initiate the kinase reactions in 10 μL total volume, with 1% DMSO. […] Kinase reactions were allowed to proceed for 1 hour at ambient temperature before a 10 μL preparation of EDTA (10 mM final concentration) and Tb-anti-pSTAT1 (pTyr701) antibody (Life Technologies, 2 nM final concentration) in TR-FRET dilution buffer (Life Technologies) was added. The plates were allowed to incubate at ambient temperature for 1 h before being read on the EnVision reader (Perkin Elmer). Emission ratio signals (520 nm/495 nm) were recorded and utilized to calculate the percent inhibition values based on DMSO and background controls.
(§4) For dose-response analysis, percent inhibition data were plotted vs. compound concentrations, and IC50 values were determined from a 4-parameter robust fit model with the Prism software (GraphPad Software). Results were expressed as pIC50 (negative logarithm of IC50) and subsequently converted to pKi (negative logarithm of dissociation constant, Ki) using the Cheng-Prusoff equation.

Chain of JAK1 (P23458 whole entry): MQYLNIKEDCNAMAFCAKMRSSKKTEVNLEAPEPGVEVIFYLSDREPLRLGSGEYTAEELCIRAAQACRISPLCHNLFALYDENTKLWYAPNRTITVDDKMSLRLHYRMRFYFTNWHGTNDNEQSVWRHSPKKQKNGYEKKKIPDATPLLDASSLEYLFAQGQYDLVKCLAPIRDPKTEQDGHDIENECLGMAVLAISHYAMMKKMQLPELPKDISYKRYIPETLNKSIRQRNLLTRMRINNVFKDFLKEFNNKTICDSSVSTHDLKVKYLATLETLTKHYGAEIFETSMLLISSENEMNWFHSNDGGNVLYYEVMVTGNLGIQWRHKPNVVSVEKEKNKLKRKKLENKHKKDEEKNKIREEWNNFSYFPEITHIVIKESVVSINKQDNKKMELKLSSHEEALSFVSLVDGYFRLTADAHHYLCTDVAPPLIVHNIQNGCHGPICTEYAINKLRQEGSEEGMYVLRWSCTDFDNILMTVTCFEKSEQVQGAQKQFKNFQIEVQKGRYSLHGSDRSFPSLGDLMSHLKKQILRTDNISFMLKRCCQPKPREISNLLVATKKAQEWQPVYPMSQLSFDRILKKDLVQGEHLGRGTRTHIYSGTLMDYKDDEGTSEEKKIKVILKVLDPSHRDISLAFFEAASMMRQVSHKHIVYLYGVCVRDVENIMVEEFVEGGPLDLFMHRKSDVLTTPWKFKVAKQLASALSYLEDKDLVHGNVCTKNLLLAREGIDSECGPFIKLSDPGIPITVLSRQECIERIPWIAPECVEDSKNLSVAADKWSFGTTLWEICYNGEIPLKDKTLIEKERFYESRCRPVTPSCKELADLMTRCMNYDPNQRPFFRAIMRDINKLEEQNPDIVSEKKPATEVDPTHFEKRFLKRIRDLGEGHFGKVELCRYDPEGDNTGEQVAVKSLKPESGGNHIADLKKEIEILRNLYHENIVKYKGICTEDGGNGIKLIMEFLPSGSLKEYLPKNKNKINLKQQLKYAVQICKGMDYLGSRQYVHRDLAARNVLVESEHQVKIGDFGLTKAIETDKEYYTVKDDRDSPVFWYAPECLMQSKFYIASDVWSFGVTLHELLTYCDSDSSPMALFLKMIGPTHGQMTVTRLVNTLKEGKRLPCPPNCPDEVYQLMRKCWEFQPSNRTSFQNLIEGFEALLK

SMILES | JAK 1 (pKi)
C=CC(=O)N1CC(CCn2c(=O)ccc3cnc(Nc4ccc(N5CCN(C)CC5)c(F)c4)nc32)C1 [Example 48] | E (E represents a pKi value of 7 or below (Ki of 100 nM or above))
C=CC(=O)N1CCN(CCn2c(=O)ccc3cnc(Nc4ccc(N5CCN(C)CC5)c(C)c4)nc32)CC1 [Example 49] | E (E represents a pKi value of 7 or below (Ki of 100 nM or above))
C=CC(=O)N1CC(CCn2c(=O)ccc3cnc(Nc4ccc(N5CCSCC5)c(F)c4)nc32)C1 [Example 53] | E (E represents a pKi value of 7 or below (Ki of 100 nM or above))
C=CC(=O)N1CC(CCn2c(=O)ccc3cnc(Nc4cnn(CCOCC)c4)nc32)C1 [Example 56] | E (E represents a pKi value of 7 or below (Ki of 100 nM or above))
C=CC(=O)N1CC(CCn2c(=O)ccc3cnc(Nc4cnn(CC(C)(C)O)c4)nc32)C1 [Example 57] | E (E represents a pKi value of 7 or below (Ki of 100 nM or above))
C=CC(=O)N1CC(CCn2c(=O)ccc3cnc(Nc4cnn(C(C)(C)COC)c4)nc32)C1 [Example 58] | E (E represents a pKi value of 7 or below (Ki of 100 nM or above))

target: JAK2 (Homo sapiens (Human), UniProt O60674); assay: Biochemical JAK2 kinase assay (LanthaScreen); settings: not given
Sequence (O60674 whole entry): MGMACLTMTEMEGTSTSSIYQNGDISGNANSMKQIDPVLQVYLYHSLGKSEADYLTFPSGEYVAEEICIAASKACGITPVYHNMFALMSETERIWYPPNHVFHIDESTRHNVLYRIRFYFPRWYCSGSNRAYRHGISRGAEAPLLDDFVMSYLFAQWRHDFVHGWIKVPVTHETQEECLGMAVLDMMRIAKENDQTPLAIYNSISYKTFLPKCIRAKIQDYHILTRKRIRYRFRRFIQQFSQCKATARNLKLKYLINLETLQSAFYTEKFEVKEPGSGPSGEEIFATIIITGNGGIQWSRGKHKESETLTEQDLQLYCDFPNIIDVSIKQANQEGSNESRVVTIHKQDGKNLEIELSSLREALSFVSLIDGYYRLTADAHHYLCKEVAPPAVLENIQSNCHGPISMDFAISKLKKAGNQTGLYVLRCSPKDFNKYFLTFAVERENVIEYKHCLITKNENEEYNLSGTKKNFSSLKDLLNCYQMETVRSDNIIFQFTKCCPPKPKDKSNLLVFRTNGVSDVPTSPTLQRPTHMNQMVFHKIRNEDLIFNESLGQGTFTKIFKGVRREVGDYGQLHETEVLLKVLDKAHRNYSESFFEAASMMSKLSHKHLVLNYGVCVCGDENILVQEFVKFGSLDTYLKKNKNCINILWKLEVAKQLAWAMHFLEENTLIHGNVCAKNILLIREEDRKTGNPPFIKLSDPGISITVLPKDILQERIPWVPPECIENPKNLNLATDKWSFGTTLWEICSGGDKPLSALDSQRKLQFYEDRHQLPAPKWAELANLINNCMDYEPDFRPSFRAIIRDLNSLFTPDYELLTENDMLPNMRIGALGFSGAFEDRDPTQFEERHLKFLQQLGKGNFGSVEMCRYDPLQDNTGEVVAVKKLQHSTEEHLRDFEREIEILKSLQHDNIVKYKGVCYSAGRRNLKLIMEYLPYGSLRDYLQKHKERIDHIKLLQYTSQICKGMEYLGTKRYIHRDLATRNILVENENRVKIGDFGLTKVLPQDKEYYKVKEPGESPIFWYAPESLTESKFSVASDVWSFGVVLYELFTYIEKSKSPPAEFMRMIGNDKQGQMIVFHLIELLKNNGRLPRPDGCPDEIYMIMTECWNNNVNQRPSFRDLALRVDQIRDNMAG
Protocol: as §1, §2, §3, §4

SMILES | JAK 2 (pKi)
C=CC(=O)N1CC(CCn2c(=O)ccc3cnc(Nc4ccc(N5CCN(C)CC5)c(F)c4)nc32)C1 [Example 48] | E (E represents a pKi value of 7 or below (Ki of 100 nM or above))
C=CC(=O)N1CCN(CCn2c(=O)ccc3cnc(Nc4ccc(N5CCN(C)CC5)c(C)c4)nc32)CC1 [Example 49] | E (E represents a pKi value of 7 or below (Ki of 100 nM or above))
C=CC(=O)N1CC(CCn2c(=O)ccc3cnc(Nc4ccc(N5CCSCC5)c(F)c4)nc32)C1 [Example 53] | E (E represents a pKi value of 7 or below (Ki of 100 nM or above))
C=CC(=O)N1CC(CCn2c(=O)ccc3cnc(Nc4cnn(CCOCC)c4)nc32)C1 [Example 56] | E (E represents a pKi value of 7 or below (Ki of 100 nM or above))
C=CC(=O)N1CC(CCn2c(=O)ccc3cnc(Nc4cnn(CC(C)(C)O)c4)nc32)C1 [Example 57] | E (E represents a pKi value of 7 or below (Ki of 100 nM or above))
C=CC(=O)N1CC(CCn2c(=O)ccc3cnc(Nc4cnn(C(C)(C)COC)c4)nc32)C1 [Example 58] | E (E represents a pKi value of 7 or below (Ki of 100 nM or above))

target: JAK3 (Homo sapiens (Human), UniProt P52333); assay: Biochemical JAK3 kinase assay (LanthaScreen); settings: not given
Sequence (P52333 whole entry): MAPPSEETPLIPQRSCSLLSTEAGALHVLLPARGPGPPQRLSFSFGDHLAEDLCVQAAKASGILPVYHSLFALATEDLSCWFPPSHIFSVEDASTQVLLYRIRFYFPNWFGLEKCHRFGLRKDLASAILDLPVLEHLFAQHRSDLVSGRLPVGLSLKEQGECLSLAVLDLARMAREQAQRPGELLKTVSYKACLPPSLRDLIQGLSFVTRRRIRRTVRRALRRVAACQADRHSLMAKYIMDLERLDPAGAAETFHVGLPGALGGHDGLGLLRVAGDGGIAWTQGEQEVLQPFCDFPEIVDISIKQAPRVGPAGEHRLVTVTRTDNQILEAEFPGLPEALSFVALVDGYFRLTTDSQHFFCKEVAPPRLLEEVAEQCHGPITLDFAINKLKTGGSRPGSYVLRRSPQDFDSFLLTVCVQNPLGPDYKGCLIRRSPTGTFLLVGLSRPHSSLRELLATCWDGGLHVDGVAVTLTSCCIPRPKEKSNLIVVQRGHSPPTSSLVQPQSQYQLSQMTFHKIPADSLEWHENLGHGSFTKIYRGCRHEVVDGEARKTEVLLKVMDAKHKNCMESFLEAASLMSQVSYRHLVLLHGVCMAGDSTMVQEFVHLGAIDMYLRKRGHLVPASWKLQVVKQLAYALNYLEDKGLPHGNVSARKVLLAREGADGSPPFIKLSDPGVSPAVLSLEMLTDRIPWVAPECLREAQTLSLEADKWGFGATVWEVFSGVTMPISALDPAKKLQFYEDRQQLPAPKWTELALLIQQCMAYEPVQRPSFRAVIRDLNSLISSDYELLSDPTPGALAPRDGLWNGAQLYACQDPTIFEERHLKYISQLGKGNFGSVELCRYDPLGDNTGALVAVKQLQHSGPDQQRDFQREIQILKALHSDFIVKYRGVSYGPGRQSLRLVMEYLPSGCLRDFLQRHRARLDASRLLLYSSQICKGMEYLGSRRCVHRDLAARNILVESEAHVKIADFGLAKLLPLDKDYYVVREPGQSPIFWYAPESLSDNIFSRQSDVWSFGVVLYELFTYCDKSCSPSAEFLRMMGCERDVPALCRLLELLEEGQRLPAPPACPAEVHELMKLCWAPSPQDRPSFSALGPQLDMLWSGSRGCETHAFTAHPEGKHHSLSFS
Protocol: as §1, §2, §3, §4

SMILES | JAK 3 (pKi)
C=CC(=O)N1CC(CCn2c(=O)ccc3cnc(Nc4ccc(N5CCN(C)CC5)c(F)c4)nc32)C1 [Example 48] | B (B represents pKi value between 9 and 10 (Ki between 1 nM and 0.1 nM))
C=CC(=O)N1CCN(CCn2c(=O)ccc3cnc(Nc4ccc(N5CCN(C)CC5)c(C)c4)nc32)CC1 [Example 49] | B (B represents pKi value between 9 and 10 (Ki between 1 nM and 0.1 nM))
C=CC(=O)N1CC(CCn2c(=O)ccc3cnc(Nc4ccc(N5CCSCC5)c(F)c4)nc32)C1 [Example 53] | B (B represents pKi value between 9 and 10 (Ki between 1 nM and 0.1 nM))
C=CC(=O)N1CC(CCn2c(=O)ccc3cnc(Nc4cnn(CCOCC)c4)nc32)C1 [Example 56] | B (B represents pKi value between 9 and 10 (Ki between 1 nM and 0.1 nM))
C=CC(=O)N1CC(CCn2c(=O)ccc3cnc(Nc4cnn(CC(C)(C)O)c4)nc32)C1 [Example 57] | B (B represents pKi value between 9 and 10 (Ki between 1 nM and 0.1 nM))
C=CC(=O)N1CC(CCn2c(=O)ccc3cnc(Nc4cnn(C(C)(C)COC)c4)nc32)C1 [Example 58] | B (B represents pKi value between 9 and 10 (Ki between 1 nM and 0.1 nM))

same assay, conditions: selectivity JAK3 over JAK1, difference of pKi

SMILES | JAK3 (pKi)-JAK1 (pKi)
C=CC(=O)N1CC(CCn2c(=O)ccc3cnc(Nc4ccc(N5CCN(C)CC5)c(F)c4)nc32)C1 [Example 48] | A (A represents a value of 3 or above)
C=CC(=O)N1CCN(CCn2c(=O)ccc3cnc(Nc4ccc(N5CCN(C)CC5)c(C)c4)nc32)CC1 [Example 49] | A (A represents a value of 3 or above)
C=CC(=O)N1CC(CCn2c(=O)ccc3cnc(Nc4ccc(N5CCSCC5)c(F)c4)nc32)C1 [Example 53] | A (A represents a value of 3 or above)
C=CC(=O)N1CC(CCn2c(=O)ccc3cnc(Nc4cnn(CCOCC)c4)nc32)C1 [Example 56] | A (A represents a value of 3 or above)
C=CC(=O)N1CC(CCn2c(=O)ccc3cnc(Nc4cnn(CC(C)(C)O)c4)nc32)C1 [Example 57] | A (A represents a value of 3 or above)
C=CC(=O)N1CC(CCn2c(=O)ccc3cnc(Nc4cnn(C(C)(C)COC)c4)nc32)C1 [Example 58] | A (A represents a value of 3 or above)

target: Tyk2 (Homo sapiens (Human), UniProt P29597); assay: Biochemical Tyk2 kinase assay (LanthaScreen); settings: not given
Sequence (P29597 whole entry): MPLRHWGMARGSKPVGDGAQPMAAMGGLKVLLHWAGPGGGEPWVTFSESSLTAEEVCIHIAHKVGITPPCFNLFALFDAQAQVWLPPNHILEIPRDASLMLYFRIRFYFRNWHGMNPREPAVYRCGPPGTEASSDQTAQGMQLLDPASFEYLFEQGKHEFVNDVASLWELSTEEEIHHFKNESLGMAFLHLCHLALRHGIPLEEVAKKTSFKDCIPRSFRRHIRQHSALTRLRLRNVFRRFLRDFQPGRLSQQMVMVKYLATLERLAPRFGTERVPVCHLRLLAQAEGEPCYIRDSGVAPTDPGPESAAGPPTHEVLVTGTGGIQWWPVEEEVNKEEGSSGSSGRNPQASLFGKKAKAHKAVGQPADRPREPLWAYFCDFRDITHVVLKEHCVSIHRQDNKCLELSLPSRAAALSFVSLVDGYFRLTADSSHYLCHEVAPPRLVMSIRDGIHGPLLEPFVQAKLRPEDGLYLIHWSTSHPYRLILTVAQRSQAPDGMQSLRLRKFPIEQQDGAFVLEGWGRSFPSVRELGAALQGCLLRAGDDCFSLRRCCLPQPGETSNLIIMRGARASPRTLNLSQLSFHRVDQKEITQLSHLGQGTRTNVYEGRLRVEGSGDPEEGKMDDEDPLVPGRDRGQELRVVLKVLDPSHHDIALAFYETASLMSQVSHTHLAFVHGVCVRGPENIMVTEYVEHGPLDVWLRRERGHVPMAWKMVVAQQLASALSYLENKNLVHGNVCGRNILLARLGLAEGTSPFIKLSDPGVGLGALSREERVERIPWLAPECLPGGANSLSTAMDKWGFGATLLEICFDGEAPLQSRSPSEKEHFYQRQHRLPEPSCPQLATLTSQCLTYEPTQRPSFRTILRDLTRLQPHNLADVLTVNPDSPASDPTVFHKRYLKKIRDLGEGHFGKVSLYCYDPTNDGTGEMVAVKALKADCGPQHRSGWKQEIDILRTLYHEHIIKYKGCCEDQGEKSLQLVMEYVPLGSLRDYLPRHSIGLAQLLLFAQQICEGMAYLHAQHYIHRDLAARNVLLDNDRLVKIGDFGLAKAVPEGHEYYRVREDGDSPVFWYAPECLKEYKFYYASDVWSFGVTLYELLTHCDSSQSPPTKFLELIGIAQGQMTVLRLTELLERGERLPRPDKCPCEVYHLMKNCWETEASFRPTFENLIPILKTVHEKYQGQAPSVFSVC
Protocol: as §1, §2, §3, §4

SMILES | Tyk 2 (pKi)
C=CC(=O)N1CC(CCn2c(=O)ccc3cnc(Nc4ccc(N5CCN(C)CC5)c(F)c4)nc32)C1 [Example 48] | E (E represents a pKi value of 7 or below (Ki of 100 nM or above))
C=CC(=O)N1CCN(CCn2c(=O)ccc3cnc(Nc4ccc(N5CCN(C)CC5)c(C)c4)nc32)CC1 [Example 49] | E (E represents a pKi value of 7 or below (Ki of 100 nM or above))
C=CC(=O)N1CC(CCn2c(=O)ccc3cnc(Nc4ccc(N5CCSCC5)c(F)c4)nc32)C1 [Example 53] | E (E represents a pKi value of 7 or below (Ki of 100 nM or above))
C=CC(=O)N1CC(CCn2c(=O)ccc3cnc(Nc4cnn(CCOCC)c4)nc32)C1 [Example 56] | E (E represents a pKi value of 7 or below (Ki of 100 nM or above))
C=CC(=O)N1CC(CCn2c(=O)ccc3cnc(Nc4cnn(CC(C)(C)O)c4)nc32)C1 [Example 57] | E (E represents a pKi value of 7 or below (Ki of 100 nM or above))
C=CC(=O)N1CC(CCn2c(=O)ccc3cnc(Nc4cnn(C(C)(C)COC)c4)nc32)C1 [Example 58] | E (E represents a pKi value of 7 or below (Ki of 100 nM or above))

test system: IL-2 stimulated STAT5 phosphorylation in Tall-1 human T cell line (JAK3); assay: Cellular JAK3 potency assay: inhibition of IL-2 stimulated pSTAT5 in Tall-1 T cells; assay type: cell-based; settings: IL-2 stimulated pSTAT5, Tall-1 T cells
Protocol: Assay 2: Cellular JAK3 Potency Assay: Inhibition of IL-2 Stimulated pSTAT5 in Tall-1 T Cells
The potency of test compounds for inhibition of interleukin-2 (IL-2) stimulated STAT5 phosphorylation was measured in the Tall-1 human T cell line (DSMZ) using AlphaLisa. Because IL-2 signals through JAK3, this assay provides a measure of JAK3 cellular potency.
Phosphorylated STAT5 was measured via the AlphaLISA SureFire Ultra pSTAT5 (Tyr694/699) kit (PerkinElmer).
Human T cells from the Tall-1 cell line were cultured in a 37° C., 5% CO2 humidified incubator in RPMI (Life Technologies) supplemented with 15% Heat Inactivated Fetal Bovine Serum (FBS, Life Technologies), 2 mM Glutamax (Life Technologies), 25 mM HEPES (Life Technologies) and 1× Pen/Strep (Life Technologies). Compounds were serially diluted in DMSO and dispensed acoustically to empty wells. Assay media (phenol red-free DMEM (Life Technologies) supplemented with 10% FBS (ATCC)) was dispensed (4 μL/well) and plates shaken at 900 rpm for 10 inns. Cells were seeded at 45,000 cells/well in assay media (4 μL/well), and incubated at 37° C., 5% CO2 for 1 hour, followed by the addition of IL-2 (R&D Systems; final concentration 300 ng/ml) in pre-warmed assay media (4 μL) for 30 minutes. After cytokine stimulation, cells were lysed with 6 ul of 3× AlphaLisa Lysis Buffer (PerkinElmer) containing 1× PhosStop and Complete tablets (Roche). The lysate was shaken at 900 rpm for 10 minutes at room temperature (RT). Phosphorylated STAT5 was measured via the pSTAT5 AlphaLisa kit (PerkinElmer). Freshly prepared acceptor bead mixture was dispensed onto lysate (5 μL) under green filtered <100 lux light. Plates were shaken at 900 rpm for 2 mins, briefly spun down, and incubated for 2 hrs at RT in the dark. Donor beads were dispensed (5 μL) under green filtered <100 lux light. Plates were shaken at 900 rpm for 2 minutes, briefly spun down, and incubated overnight at RT in the dark. Luminescence was measured with excitation at 689 nm and emission at 570 nm using an EnVision plate reader (PerkinElmer) under green filtered <100 lux light.
To determine the inhibitory potency of test compounds in response to IL-2, the average emission intensity of beads bound to pSTAT5 was measured in a human T cell line. IC50 values were determined from analysis of the inhibition curves of signal intensity versus compound concentration. Data are expressed as pIC50 (negative decadic logarithm IC50) values (mean standard deviation).

SMILES | Tall-1 (pIC50)
C=CC(=O)N1CC(CCn2c(=O)ccc3cnc(Nc4ccc(N5CCN(C)CC5)c(F)c4)nc32)C1 [Example 48] | B (B represents a pC50 value between 6.7 (included) and 7.5 (IC50 between 200 nM and 32 nM))
C=CC(=O)N1CCN(CCn2c(=O)ccc3cnc(Nc4ccc(N5CCN(C)CC5)c(C)c4)nc32)CC1 [Example 49] | B (B represents a pC50 value between 6.7 (included) and 7.5 (IC50 between 200 nM and 32 nM))
C=CC(=O)N1CC(CCn2c(=O)ccc3cnc(Nc4ccc(N5CCSCC5)c(F)c4)nc32)C1 [Example 53] | B (B represents a pC50 value between 6.7 (included) and 7.5 (IC50 between 200 nM and 32 nM))
C=CC(=O)N1CC(CCn2c(=O)ccc3cnc(Nc4cnn(CCOCC)c4)nc32)C1 [Example 56] | C (C represents a pIC50 value between 6 and 6.7 (IC50 between 1 μM and 200 nM))
C=CC(=O)N1CC(CCn2c(=O)ccc3cnc(Nc4cnn(CC(C)(C)O)c4)nc32)C1 [Example 57] | C (C represents a pIC50 value between 6 and 6.7 (IC50 between 1 μM and 200 nM))
C=CC(=O)N1CC(CCn2c(=O)ccc3cnc(Nc4cnn(C(C)(C)COC)c4)nc32)C1 [Example 58] | B (B represents a pC50 value between 6.7 (included) and 7.5 (IC50 between 200 nM and 32 nM))
